# PMC5536041, “Inhibitory Effects of Trapping Agents of Sulfur Drug Reactive Intermediates against Major Human Cytochrome P450 Isoforms” (International Journal of Molecular Sciences, 2017)
# Read-outs that look alike come from different tables or passages of the source.
# What was measured:
# [1] = molecular target: T1, CYP3A (Homo sapiens, UniProt P08684); assay: in vitro; details: microsomes
# [2] = molecular target: T1, CYP3A; assay: in vitro; details: microsomes; remark: listed apart in the source
# [3] = tested on: major human CYP isoforms (CYP1A2, 2C9, 2C19, 2D6 and 3A); assay: CYP inhibition in human liver microsomes, summary over the isoform panel; details: HLM + NADPH
# [4] = molecular target: T2, CYP1A2 (Homo sapiens, UniProt P05177); details: microsomes
# T2 sequence (P05177 1-516): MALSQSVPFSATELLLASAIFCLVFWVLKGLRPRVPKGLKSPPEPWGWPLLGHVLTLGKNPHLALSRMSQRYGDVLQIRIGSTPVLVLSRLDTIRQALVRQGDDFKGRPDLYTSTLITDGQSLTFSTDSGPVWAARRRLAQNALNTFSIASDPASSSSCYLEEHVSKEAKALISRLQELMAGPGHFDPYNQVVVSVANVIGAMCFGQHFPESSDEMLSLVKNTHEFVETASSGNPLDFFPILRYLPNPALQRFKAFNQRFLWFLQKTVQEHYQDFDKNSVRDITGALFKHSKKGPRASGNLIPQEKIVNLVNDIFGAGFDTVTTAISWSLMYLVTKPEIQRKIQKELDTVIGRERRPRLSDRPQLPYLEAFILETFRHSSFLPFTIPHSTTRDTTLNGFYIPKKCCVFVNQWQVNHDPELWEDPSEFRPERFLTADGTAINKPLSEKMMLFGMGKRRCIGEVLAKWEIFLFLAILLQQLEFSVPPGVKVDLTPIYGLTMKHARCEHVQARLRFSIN
# [5] = molecular target: T3, CYP2C9 (Homo sapiens, UniProt P11712); details: microsomes
# [6] = molecular target: T4, CYP2C19 (Homo sapiens, UniProt P33261); details: microsomes
# [7] = molecular target: T5, CYP2D6 (Homo sapiens, UniProt P10635); details: microsomes
# [8] = molecular target: T1, CYP3A; details: microsomes
# [9] = molecular target: T1, CYP3A; details: microsomes; remark: listed apart in the source
# [10] = tested on: major human CYP isoforms (CYP1A2, 2C9, 2C19, 2D6 and 3A)
# [11] = tested on: major human CYP isoforms (CYP1A2, 2C9, 2C19, 2D6 and 3A); assay: in vitro; details: microsomes
# [12] = molecular target: T2, CYP1A2; assay: CYP inhibition in human liver microsomes, CYP1A2 (tacrine probe)
# [13] = molecular target: T3, CYP2C9; assay: CYP inhibition in human liver microsomes, CYP2C9 ((S)-warfarin probe); details: for Activation of CYP2C9 observed at concentrations up to: HLM + NADPH, (S)-warfarin probe
# [14] = molecular target: T4, CYP2C19; assay: CYP inhibition in human liver microsomes, CYP2C19 ((S)-mephenytoin probe); details: for Activation of CYP2C19 observed at concentrations up to: HLM + NADPH, (S)-mephenytoin probe
# [15] = molecular target: T5, CYP2D6; assay: CYP inhibition in human liver microsomes, CYP2D6 (dextromethorphan probe)
# [16] = tested on: ticlopidine metabolism in human liver microsomes (TSOD and TSO-NEM formation); assay: Trapping of reactive metabolites of ticlopidine with NEM in human liver microsomes; type: in vitro ADME; details: ticlopidine 1 μM
# Protocol: Ticlopidine (1 μM) was incubated at 37 °C for 15 min in the presence or absence of various concentrations of NEM with HLM (0.5 mg/mL), NADPH (1 mM) and KPi (0.1 M), in a final incubation volume of 100 µL. Assay conditions were optimized with regard to protein concentration and incubation time, based on linear formation of TSOD. The incubations were performed over a concentration range of NEM (0.0007–40 mM) including a vehicle control, for a total of twelve incubations. A 50 µL sample was withdrawn at 15 min and the reactions were quenched in 100 µL of 0.1% formic acid in ACN containing an IS. Samples were centrifuged at 2000× g for 10 min and supernatants (75 µL) were removed and diluted with 0.1% formic acid in water (150 µL). The prepared samples were analyzed by LC-MS/MS for ticlopidine, N-ethylmaleimide-trapped S-oxide (TSO-NEM) and ticlopidine S-oxide dimer (TSOD). Peak areas were normalized to an IS, and the percentage of metabolite formed at the end of the incubation was calculated and compared to the incubation containing the highest peak area to IS ratio of metabolite (set at 100%).
# The prepared samples were analyzed by LC-MS/MS using a Cohesive LX-2 Transcend Multiplexing system with Agilent 1100 series high pressure liquid chromatography (HPLC) pumps from Agilent Technologies (Santa Clara, CA, USA) and an HTS PAL autosampler from CTC Analytics (Carrboro, NC, USA) connected to a Sciex API5500-QTrap mass spectrometer with a Turbo V™ ion source (Foster City, CA, USA). A Phenomenex Kinetex Phenyl-Hexyl HPLC column (30 × 2.1 mm, 2.6 µ) was used with 0.1% formic acid in water (mobile phase A) or 0.1% formic acid in ACN (mobile phase B) flowing at 0.55 mL/min in the following gradient: mobile phase B was held at 1% for 0.4 min, increased to 5% over 0.2 min, to 55% over 6.7 min and to 95% over 0.5 min, where it was held for 0.75 min prior to re-equilibration at 1%. LC-MS/MS multiple reaction (MRM) transitions for the CYP inhibition assay were reported previously. […]
# [17] = molecular target: T2, CYP1A2; assay: in vitro; details: microsomes
# T4 sequence (P33261 whole entry): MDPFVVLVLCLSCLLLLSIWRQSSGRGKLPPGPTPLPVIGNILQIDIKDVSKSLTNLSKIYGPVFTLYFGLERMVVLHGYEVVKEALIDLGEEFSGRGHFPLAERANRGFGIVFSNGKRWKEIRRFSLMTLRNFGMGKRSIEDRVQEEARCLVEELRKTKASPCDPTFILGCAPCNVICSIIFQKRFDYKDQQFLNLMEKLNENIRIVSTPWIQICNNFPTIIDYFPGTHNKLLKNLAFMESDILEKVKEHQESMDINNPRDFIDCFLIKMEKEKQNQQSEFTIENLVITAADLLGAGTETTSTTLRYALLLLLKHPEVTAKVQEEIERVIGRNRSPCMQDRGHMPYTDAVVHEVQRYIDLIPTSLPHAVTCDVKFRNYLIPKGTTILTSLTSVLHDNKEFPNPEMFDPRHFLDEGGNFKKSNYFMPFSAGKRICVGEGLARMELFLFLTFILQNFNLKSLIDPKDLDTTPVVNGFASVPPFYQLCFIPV
# T5 sequence (P10635 whole entry): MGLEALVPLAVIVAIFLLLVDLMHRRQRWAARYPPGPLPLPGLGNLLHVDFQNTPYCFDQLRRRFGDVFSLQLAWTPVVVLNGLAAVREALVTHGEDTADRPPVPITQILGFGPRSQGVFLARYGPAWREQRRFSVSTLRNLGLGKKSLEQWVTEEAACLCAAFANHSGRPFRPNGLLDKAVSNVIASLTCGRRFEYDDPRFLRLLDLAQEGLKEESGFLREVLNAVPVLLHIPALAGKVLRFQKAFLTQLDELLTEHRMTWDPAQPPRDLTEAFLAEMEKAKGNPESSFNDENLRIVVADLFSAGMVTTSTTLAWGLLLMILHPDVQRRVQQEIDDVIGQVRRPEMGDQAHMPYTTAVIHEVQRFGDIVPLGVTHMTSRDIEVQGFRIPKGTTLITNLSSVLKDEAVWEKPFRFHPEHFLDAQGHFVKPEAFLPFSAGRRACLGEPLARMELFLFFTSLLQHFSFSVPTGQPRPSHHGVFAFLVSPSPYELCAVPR
# T1 sequence (P08684 2-503 limits assumed): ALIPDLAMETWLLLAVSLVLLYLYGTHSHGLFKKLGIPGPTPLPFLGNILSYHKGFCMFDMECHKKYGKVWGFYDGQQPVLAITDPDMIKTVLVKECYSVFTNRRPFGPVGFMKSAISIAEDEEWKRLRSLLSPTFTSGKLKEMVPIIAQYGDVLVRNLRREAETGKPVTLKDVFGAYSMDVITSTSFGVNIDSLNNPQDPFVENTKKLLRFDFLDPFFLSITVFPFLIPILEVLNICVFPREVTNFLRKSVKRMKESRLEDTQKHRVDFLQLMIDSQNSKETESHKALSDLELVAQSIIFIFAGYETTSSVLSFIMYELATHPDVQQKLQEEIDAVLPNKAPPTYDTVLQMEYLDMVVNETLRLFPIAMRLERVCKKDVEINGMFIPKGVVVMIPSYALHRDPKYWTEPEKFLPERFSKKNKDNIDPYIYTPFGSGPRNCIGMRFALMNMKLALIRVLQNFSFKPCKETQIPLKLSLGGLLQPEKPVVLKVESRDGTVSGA
# T3 sequence (P11712 whole entry): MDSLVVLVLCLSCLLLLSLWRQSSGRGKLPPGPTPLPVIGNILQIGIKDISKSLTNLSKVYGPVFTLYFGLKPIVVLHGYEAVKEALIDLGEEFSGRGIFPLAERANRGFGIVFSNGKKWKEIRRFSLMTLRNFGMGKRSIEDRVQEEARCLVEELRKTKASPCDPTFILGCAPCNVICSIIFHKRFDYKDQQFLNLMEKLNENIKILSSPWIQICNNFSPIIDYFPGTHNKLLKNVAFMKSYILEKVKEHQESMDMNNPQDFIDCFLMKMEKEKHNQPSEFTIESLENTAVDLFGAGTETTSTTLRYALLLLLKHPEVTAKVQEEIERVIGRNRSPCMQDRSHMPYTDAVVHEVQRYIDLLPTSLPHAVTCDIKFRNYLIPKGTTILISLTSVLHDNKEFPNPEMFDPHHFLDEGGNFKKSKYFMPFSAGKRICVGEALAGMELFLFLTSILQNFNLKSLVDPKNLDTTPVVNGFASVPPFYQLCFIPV
structure (smiles),measurement,setting,value
"CC(=O)N[C@@H](CCCCN)C(=O)O [N-Acetyl-lysine1, N-Acetyl-lysine]",IC50,[1],> 50 mM
same,IC50,[2],> 50 mM
same,Inhibition of CYP isoforms at concentrations tested,[3],did not inhibit CYP isoforms at concentrations tested
same,Concentration up to which no CYP inhibition was shown,[3]; all isoforms tested,up to 50 mM
"O=[As][O-].[Na+] [Arsenite, sodium arsenite]",IC50,[4],> 10 mM
same,IC50,[5],> 10 mM
same,IC50,[6],> 10 mM
same,IC50,[7],> 10 mM
same,IC50,[8],> 10 mM
same,IC50,[9],> 10 mM
same,Concentration up to which no CYP inhibition was shown,[10],up to 10 mM
same,Inhibition of CYP isoforms at concentrations tested,[10],did not inhibit CYP isoforms at concentrations tested
C1COCCN1 [Morpholine],Activation of CYP1A2,[4],activation was observed
same,IC50,[11],7.9 to 16 mM
same,IC50,[12],> 100 mM
same,IC50,[13],7.9 mM
same,IC50,[14],14 mM
same,IC50,[15],13 mM
CN1C(=O)C=CC1=O [N-Methylmaleimide],Activation of CYP2C9 observed at concentrations up to,[13],up to 0.2 mM
same,Activation of CYP2C19 observed at concentrations up to,[14],up to 0.2 mM
"O=C(O)CCP(CCC(=O)O)CCC(=O)O [Tris(2-carboxyethyl) phosphine (TCEP), Tris(2-carboxyethyl) phosphine]",Activation of CYP2D6,"[15]; HLM + NADPH, dextromethorphan probe",activation was observed
"CCN1C(=O)C=CC1=O [N-Ethylmaleimide (NEM), N-Ethylmaleimide]",NEM concentration at and above which TSO-NEM formation rapidly decreases,"[16]; HLM 0.5 mg/mL, NADPH, 15 min",≥ 165 µM
same,NEM concentrations with initial increase in TSOD formation,"[16]; HLM 0.5 mg/mL, NADPH, 15 min",0.7 to 18.3 µM
same,Response of TSO-NEM formation to increasing NEM concentration,[16]; NEM 0.007–40 mM,bell-shaped response curve
same,IC50,[17],0.12 mM
same,IC50,[13],3.2 mM
same,Activation of CYP2C9 observed at concentrations up to,[13],up to 1 mM
same,IC50,[14],2.9 mM
same,Activation of CYP2C19 observed at concentrations up to,[14],up to 0.4 mM
same,IC50,[15],> 40 mM
"CC1(C)CC(=O)CC(=O)C1 [5,5-dimethyl-1,3-cyclohexanedione]",Inhibition of CYP isoforms at concentrations tested,[3],did not inhibit CYP isoforms at concentrations tested
CN1CCCCC1 [N-Methylpiperidine],Activation of CYP1A2 observed at concentrations up to,"[12]; HLM + NADPH, tacrine probe",up to 12.5 mM
